Data from paper PMC11435058, “Synthesis of New Thiazole-Privileged Chalcones as Tubulin Polymerization Inhibitors with Potential Anticancer Activities” (Pharmaceuticals, 2024).
Where two headings read alike, the source gives them in different places.

Experiments:
[1] = system: 60 human tumor cell lines panel; test: NCI-60 anticancer screen, whole panel (means and ranges over the cell lines); format: cell-based; conditions: Homo sapiens, 48 h
MOLT-4 = test: NCI-60 anticancer screen (SRB; single dose and five doses); conditions: Homo sapiens, MOLT-4, 48 h, read-out: Growth Percentage
COLO 205 = test: as above; conditions: Homo sapiens, COLO 205, 48 h, read-out: Growth Percentage
NCI/ADR-RES = test: as above; conditions: Homo sapiens, 48 h, read-out: Growth Percentage
PC-3 = test: as above; conditions: Homo sapiens, PC-3, 48 h, read-out: Growth Percentage
MDA-MB-231/ATCC = test: as above; conditions: Homo sapiens, MDA-MB-231, 48 h, read-out: Growth Percentage
M14 = test: as above; conditions: Homo sapiens, M14, 48 h, read-out: Growth Percentage
NCI-H226 = test: as above; conditions: Homo sapiens, NCI-H226, 48 h, read-out: Growth Percentage
RPMI-8226 = test: as above; conditions: Homo sapiens, RPMI-8226, 48 h, read-out: Growth Percentage
EKVX = test: as above; conditions: Homo sapiens, 48 h, read-out: Growth Percentage
RXF 393 = test: as above; conditions: Homo sapiens, RXF 393, 48 h, read-out: Growth Percentage
SN12C = test: as above; conditions: Homo sapiens, 48 h, read-out: Growth Percentage
SR = test: as above; conditions: Homo sapiens, 48 h, read-out: Growth Percentage
MALME-3M = test: as above; conditions: Homo sapiens, 48 h, read-out: Growth Percentage
NCI-H522 = test: as above; conditions: Homo sapiens, NCI-H522, 48 h, read-out: Growth Percentage
SK-MEL-5 = test: as above; conditions: Homo sapiens, SK-MEL-5, 48 h, read-out: Growth Percentage
K-562 = test: as above; conditions: Homo sapiens, K562, 48 h, read-out: Growth Percentage
SF-539 = test: as above; conditions: Homo sapiens, SF-539, 48 h, read-out: Growth Percentage
HS 578T = test: as above; conditions: Homo sapiens, 48 h, read-out: Growth Percentage
BT-549 = test: as above; conditions: Homo sapiens, BT-549, 48 h, read-out: Growth Percentage
MCF7 = test: as above; conditions: Homo sapiens, MCF7, 48 h, read-out: Growth Percentage
NCI-H322M = test: as above; conditions: Homo sapiens, 48 h, read-out: Growth Percentage
CCRF-CEM = test: NCI-60 anticancer screen (SRB; single dose 10 μM and five doses); conditions: Homo sapiens, 48 h, read-out: Growth Percentage
DU-145 = test: NCI-60 anticancer screen (SRB; single dose and five doses); conditions: Homo sapiens, DU-145, 48 h, read-out: Growth Percentage
SNB-19 = test: cells; conditions: Homo sapiens, SNB-19, 48 h, read-out: Growth Percentage
SF-268 = test: NCI-60 anticancer screen (SRB; single dose and five doses); conditions: Homo sapiens, SF-268, 48 h, read-out: Growth Percentage
NCI-H23 = test: as above; conditions: Homo sapiens, NCI-H23, 48 h, read-out: Growth Percentage
ACHN = test: as above; conditions: Homo sapiens, 48 h, read-out: Growth Percentage
A498 = test: as above; conditions: Homo sapiens, A498, 48 h, read-out: Growth Percentage, A498; dose of 10 μM
[2] = read-out: growth percentages against most of the tested cells (lowest to highest)
[3] = mean over the tested cell lines, dose of 10 μM, read-out: Mean growth percentage

SMILES	activity at 10 µM [1, 3] [%]	activity at 10 µM (MOLT-4) [%]	activity at 10 µM (COLO 205) [%]	activity at 10 µM (NCI/ADR-RES) [%]	activity at 10 µM (PC-3) [%]	activity at 10 µM (MDA-MB-231/ATCC) [%]	activity at 10 µM (M14) [%]	activity at 10 µM (NCI-H226) [%]	activity at 10 µM (RPMI-8226) [%]	activity at 10 µM (EKVX) [%]	activity at 10 µM (RXF 393) [%]	activity at 10 µM (SN12C) [%]	activity at 10 µM (SR) [%]	activity at 10 µM (MALME-3M) [%]	activity at 10 µM (NCI-H522) [%]	activity at 10 µM (SK-MEL-5) [%]	activity at 10 µM (K-562) [%]	activity at 10 µM (SF-539) [%]	activity at 10 µM (HS 578T) [%]	activity at 10 µM (BT-549) [%]	other results
Cc1ccc(/C=C/C(=O)c2sc(=S)[nH]c2C)cc1 [2j, (E)-1-(4-Methyl-2-Thioxo-2,3-Dihydrothiazol-5-yl)-3-(p-Tolyl)Prop-2-En-1-One]	63.3	68.8	122	31	74.8	71.7	83	93.8	18.9	55.5	55.4	62.3	45.5	84.7	60.2	56.1	34.2	43	101	56.1	activity at 10 µM [1, 2]: 11.8 to 131%; activity at 10 µM (MCF7): 28.3%; activity at 10 µM (NCI-H322M): 62.1%; activity at 10 µM (CCRF-CEM): 24.6%; activity at 10 µM (DU-145): 54.6%; activity at 10 µM (SNB-19): 65.5%; activity at 10 µM (SF-268): 86.9%; activity at 10 µM (NCI-H23): 68.5%; activity at 10 µM (ACHN): 71.2%; activity at 10 µM (A498): 131%
COc1cccc(/C=C/C(=O)c2sc(=S)[nH]c2C)c1OC [2m, (E)-3-(2,3-Dimethoxyphenyl)-1-(4-Methyl-2-Thioxo-2,3-Dihydrothiazol-5-yl)Prop-2-En-1-One]	49.9	36.8	103	30.9	41.6	68.3	54	90.8	9.09	54.5	52.5	45	5.15	97.1	32.9	23.5	27.5	22.7	49.2	71	activity at 10 µM ([1]; range over the cell lines, dose of 10 μM, read-out: growth percentages against most of the tested cells (lowest to highest)): 5.15 to 109%; activity at 10 µM (MCF7): 16.6%; activity at 10 µM (NCI-H322M): 62.8%; activity at 10 µM (CCRF-CEM): 12.4%; activity at 10 µM (DU-145): 42%; activity at 10 µM (SNB-19): 37.2%; activity at 10 µM (SF-268): 54%; activity at 10 µM (NCI-H23): 86.5%; activity at 10 µM (ACHN): 52.5%; activity at 10 µM (A498): 109%
Cc1[nH]c(=S)sc1C(=O)/C=C/c1cccc(F)c1 [2b, (E)-3-(3-Fluorophenyl)-1-(4-Methyl-2-Thioxo-2,3-Dihydrothiazol-5-yl)Prop-2-En-1-One]	47.5	43.6	94.5	10.8	54.7	67.4	78.5	85.7	15.2	68.6	23.2	32.1	6.82	101	63.9	62.2	22.8	6.17	79.8	65.7	activity at 10 µM [1, 2]: -22.7 to 106%; activity at 10 µM (MCF7): 7.97%; activity at 10 µM (NCI-H322M): 84.5%; activity at 10 µM (CCRF-CEM): 15.4%; activity at 10 µM (DU-145): 12.9%; activity at 10 µM (SNB-19): 44%; activity at 10 µM (SF-268): 82.3%; activity at 10 µM (NCI-H23): 71.1%; activity at 10 µM (ACHN): 56%; activity at 10 µM (A498): 106%
